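Growth conditions: 96-well plates. Treatment: test compound, 48 hours, 5 concentrations. Analysis: linear interpolation between bracketing concentrations; unreached endpoints set to highest concentration. TGI is the concentration that stops growth completely.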
Assays:
Test in all cases: NCI tumour cell line growth inhibition, 48 h
MDA-N = tested on: MDA-N
NCI/ADR-RES ovarian = tested on: NCI/ADR-RES ovarian
CAKI-1 renal = tested on: CAKI-1 renal
UACC-62 melanoma = tested on: UACC-62 melanoma
DU-145 prostate = tested on: DU-145 prostate
MDA-MB-231 breast = tested on: MDA-MB-231 breast
MALME-3M melanoma = tested on: MALME-3M melanoma
HOP-92 NSCLC = tested on: HOP-92 NSCLC
RPMI-8226 leukemia = tested on: RPMI-8226 leukemia
U251 CNS = tested on: U251 CNS
CCRF-CEM leukemia = tested on: CCRF-CEM leukemia
SK-MEL-5 melanoma = tested on: SK-MEL-5 melanoma
ACHN renal = tested on: ACHN renal
M14 melanoma = tested on: M14 melanoma
UO-31 renal = tested on: UO-31 renal
SK-MEL-2 melanoma = tested on: SK-MEL-2 melanoma
A498 renal = tested on: A498 renal
SF-539 CNS = tested on: SF-539 CNS
EKVX NSCLC = tested on: EKVX NSCLC
SNB-75 CNS = tested on: SNB-75 CNS
OVCAR-5 ovarian = tested on: OVCAR-5 ovarian
HCT-15 colon = tested on: HCT-15 colon
LOX IMVI melanoma = tested on: LOX IMVI melanoma
SR leukemia = tested on: SR leukemia
NCI-H460 lung = tested on: NCI-H460 lung
UACC-257 melanoma = tested on: UACC-257 melanoma
RXF 393 renal = tested on: RXF 393 renal
786-0 renal = tested on: 786-0 renal
COLO 205 colon = tested on: COLO 205 colon
OVCAR-3 ovarian = tested on: OVCAR-3 ovarian
HCC-2998 colon = tested on: HCC-2998 colon
OVCAR-8 ovarian = tested on: OVCAR-8 ovarian
HCT-116 colon = tested on: HCT-116 colon
MDA-MB-435 = tested on: MDA-MB-435
BT-549 breast = tested on: BT-549 breast
SK-MEL-28 melanoma = tested on: SK-MEL-28 melanoma
MOLT-4 leukemia = tested on: MOLT-4 leukemia
NCI-H522 lung = tested on: NCI-H522 lung
SF-268 CNS = tested on: SF-268 CNS
T-47D breast = tested on: T-47D breast
HT29 colon = tested on: HT29 colon
PC-3 prostate = tested on: PC-3 prostate
NCI-H226 lung = tested on: NCI-H226 lung
MCF7 breast = tested on: MCF7 breast
K-562 leukemia = tested on: K-562 leukemia
KM12 colon = tested on: KM12 colon
NCI-H23 lung = tested on: NCI-H23 lung
TK-10 renal = tested on: TK-10 renal
SK-OV-3 ovarian = tested on: SK-OV-3 ovarian
SNB-19 CNS = tested on: SNB-19 CNS
SN12C renal = tested on: SN12C renal
SF-295 CNS = tested on: SF-295 CNS
A549 NSCLC = tested on: A549 NSCLC
HOP-62 NSCLC = tested on: HOP-62 NSCLC
OVCAR-4 ovarian = tested on: OVCAR-4 ovarian
IGROV1 ovarian = tested on: IGROV1 ovarian
HS 578T breast = tested on: HS 578T breast
SW-620 colon = tested on: SW-620 colon

With `OC/C=C/[C@H](OCc1ccccc1)[C@H](/C=C/CO)OCc1ccccc1` the TGI (MDA-N) was greater than 100 µM, the TGI (NCI/ADR-RES ovarian) was greater than 100 µM and the TGI (CAKI-1 renal) was greater than 100 µM. It also gave a TGI (UACC-62 melanoma) greater than 100 µM, a TGI (DU-145 prostate) greater than 100 µM and a TGI (MDA-MB-231 breast) greater than 100 µM. The TGI (MALME-3M melanoma) was greater than 100 µM, the TGI (HOP-92 NSCLC) was greater than 100 µM and the TGI (RPMI-8226 leukemia) was 42.8 µM. For the same compound, the TGI (U251 CNS) was 69.1 µM, the TGI (CCRF-CEM leukemia) was 51.4 µM and the TGI (SK-MEL-5 melanoma) was greater than 100 µM. The TGI (ACHN renal) was greater than 100 µM, the TGI (M14 melanoma) was greater than 100 µM and the TGI (UO-31 renal) was greater than 100 µM. It also gave a TGI (SK-MEL-2 melanoma) greater than 100 µM, a TGI (A498 renal) greater than 100 µM and a TGI (SF-539 CNS) greater than 100 µM. The TGI (EKVX NSCLC) was greater than 100 µM, the TGI (SNB-75 CNS) was greater than 100 µM and the TGI (OVCAR-5 ovarian) was greater than 100 µM. For the same compound, the TGI (HCT-15 colon) was greater than 100 µM, the TGI (LOX IMVI melanoma) was 47.4 µM and the TGI (SR leukemia) was 39.6 µM. It also gave a TGI (NCI-H460 lung) greater than 100 µM, a TGI (UACC-257 melanoma) greater than 100 µM and a TGI (RXF 393 renal) greater than 100 µM. It also gave a TGI (786-0 renal) greater than 100 µM, a TGI (COLO 205 colon) greater than 100 µM and a TGI (OVCAR-3 ovarian) greater than 100 µM. For the same compound, the TGI (HCC-2998 colon) was greater than 100 µM, the TGI (OVCAR-8 ovarian) was greater than 100 µM and the TGI (HCT-116 colon) was greater than 100 µM. It also gave a TGI (MDA-MB-435) greater than 100 µM, a TGI (BT-549 breast) greater than 100 µM and a TGI (SK-MEL-28 melanoma) greater than 100 µM. It also gave a TGI (MOLT-4 leukemia) of 40 µM, a TGI (NCI-H522 lung) greater than 100 µM and a TGI (SF-268 CNS) of 94.6 µM. It also gave a TGI (T-47D breast) of 88.8 µM, a TGI (HT29 colon) of 59.9 µM and a TGI (PC-3 prostate) greater than 100 µM. The TGI (NCI-H226 lung) was greater than 100 µM, the TGI (MCF7 breast) was greater than 100 µM and the TGI (K-562 leukemia) was 54.7 µM. The TGI (KM12 colon) was greater than 100 µM, the TGI (NCI-H23 lung) was greater than 100 µM and the TGI (TK-10 renal) was greater than 100 µM. It also gave a TGI (SK-OV-3 ovarian) greater than 100 µM, a TGI (SNB-19 CNS) of 85.9 µM and a TGI (SN12C renal) greater than 100 µM. The TGI (SF-295 CNS) was greater than 100 µM, the TGI (A549 NSCLC) was greater than 100 µM and the TGI (HOP-62 NSCLC) was greater than 100 µM. For the same compound, the TGI (OVCAR-4 ovarian) was 95 µM, the TGI (IGROV1 ovarian) was greater than 100 µM and the TGI (HS 578T breast) was greater than 100 µM. The TGI (SW-620 colon) was greater than 100 µM.
Compound `NC(N)=N/N=C\c1ccc(C2CCNCC2)cc1` has a TGI (MDA-N) greater than 100 µM, a TGI (NCI/ADR-RES ovarian) greater than 100 µM and a TGI (CAKI-1 renal) greater than 100 µM. For the same compound, the TGI (UACC-62 melanoma) was greater than 100 µM, the TGI (DU-145 prostate) was greater than 100 µM and the TGI (MDA-MB-231 breast) was greater than 100 µM. It also gave a TGI (MALME-3M melanoma) greater than 100 µM, a TGI (HOP-92 NSCLC) greater than 100 µM and a TGI (RPMI-8226 leukemia) greater than 100 µM. For the same compound, the TGI (U251 CNS) was greater than 100 µM, the TGI (CCRF-CEM leukemia) was greater than 100 µM and the TGI (SK-MEL-5 melanoma) was greater than 100 µM. For the same compound, the TGI (ACHN renal) was greater than 100 µM, the TGI (M14 melanoma) was greater than 100 µM and the TGI (UO-31 renal) was greater than 100 µM. The TGI (SK-MEL-2 melanoma) was greater than 100 µM, the TGI (A498 renal) was greater than 100 µM and the TGI (SF-539 CNS) was greater than 100 µM. For the same compound, the TGI (EKVX NSCLC) was greater than 100 µM, the TGI (SNB-75 CNS) was greater than 100 µM and the TGI (OVCAR-5 ovarian) was greater than 100 µM. It also gave a TGI (HCT-15 colon) greater than 100 µM, a TGI (LOX IMVI melanoma) greater than 100 µM and a TGI (SR leukemia) greater than 100 µM. It also gave a TGI (NCI-H460 lung) greater than 100 µM, a TGI (UACC-257 melanoma) greater than 100 µM and a TGI (RXF 393 renal) greater than 100 µM. For the same compound, the TGI (786-0 renal) was greater than 100 µM, the TGI (COLO 205 colon) was greater than 100 µM and the TGI (OVCAR-3 ovarian) was greater than 100 µM. For the same compound, the TGI (HCC-2998 colon) was greater than 100 µM, the TGI (OVCAR-8 ovarian) was greater than 100 µM and the TGI (HCT-116 colon) was greater than 100 µM. It also gave a TGI (MDA-MB-435) greater than 100 µM, a TGI (BT-549 breast) greater than 100 µM and a TGI (SK-MEL-28 melanoma) greater than 100 µM. It also gave a TGI (MOLT-4 leukemia) greater than 100 µM, a TGI (NCI-H522 lung) greater than 100 µM and a TGI (SF-268 CNS) greater than 100 µM. It also gave a TGI (T-47D breast) greater than 100 µM, a TGI (HT29 colon) greater than 100 µM and a TGI (PC-3 prostate) greater than 100 µM. For the same compound, the TGI (NCI-H226 lung) was greater than 100 µM, the TGI (MCF7 breast) was greater than 100 µM and the TGI (K-562 leukemia) was greater than 100 µM. It also gave a TGI (KM12 colon) greater than 100 µM, a TGI (NCI-H23 lung) greater than 100 µM and a TGI (TK-10 renal) greater than 100 µM. For the same compound, the TGI (SK-OV-3 ovarian) was greater than 100 µM, the TGI (SNB-19 CNS) was greater than 100 µM and the TGI (SN12C renal) was greater than 100 µM. For the same compound, the TGI (SF-295 CNS) was greater than 100 µM, the TGI (A549 NSCLC) was greater than 100 µM and the TGI (HOP-62 NSCLC) was greater than 100 µM. It also gave a TGI (OVCAR-4 ovarian) greater than 100 µM, a TGI (IGROV1 ovarian) greater than 100 µM and a TGI (HS 578T breast) greater than 100 µM. The TGI (SW-620 colon) was greater than 100 µM.

From PubChem BioAssay (NCI)
